Bounds are passed on as bounds.

From patent US11607419B2, “Inhibitors of RAC1 and uses thereof for inducing bronchodilatation” (INSTITUT NATIONAL DE LA SANTE ET DE LA RECHERCHE MEDICALE …, priority 2017, dated 2023) come the findings set out here.

In data set [1] the target is T1, RAC1 (Homo sapiens, UniProt P63000). To be noted: compared with NSC23766.
The target in data set [2] is T1, RAC1.

Broadly, the melting point is the temperature of the solid-liquid transition. `COc1ccc(OC)c(NS(=O)(=O)c2ccc(NC(=O)C#C[Si](C)(C)C)cc2)c1`: the melting point was determined as 84 °C.

The IC50 is the point on the concentration scale where inhibition reaches its midpoint. A lower IC50 goes with greater potency. `COc1ccc(NS(=O)(=O)c2ccc(NC(=O)CCSc3ccc(C)cc3)cc2)c(OC)c1` [(1), N-(4-(N-(2,4-dimethoxyphenyl)sulfamoyl)phenyl)-3-(p-tolylthio)propanamide]: the “Relative activity (NSC23766)” value on RAC1 [1] is recorded as “>”. Besides, the IC50 on RAC1 [2] was 30 nM.

In turn, `COc1ccc(OC)c(NS(=O)(=O)c2ccc(NC(=O)CCCc3ccc(C)cc3)cc2)c1` [(3), N-(4-(N-(2,5-dimethoxyphenyl)sulfamoyl)phenyl)-4-(p-tolyl) butanamide] gave a melting point of 126 °C.

Turning to `COc1ccc(OC)c(NS(=O)(=O)c2ccc(NC(=O)CSc3ccc(C)cc3)cc2)c1` [(4)], the melting point came out at 126 °C.

Molecule `C=CC(=O)Nc1ccc(S(=O)(=O)Nc2cc(OC)ccc2OC)cc1` [(5), N-(4-(N-(2,5-dimethoxyphenyl)sulfamoyl)phenyl)acrylamide] came in with a melting point of 126 °C. On RAC1 [1], the “Relative activity (NSC23766)” value is “>”. The IC50 at RAC1 [2] was 0.1 nM.

On to `COc1ccc(OC)c(NS(=O)(=O)c2ccc(NC(=O)CCOc3ccc(C)cc3)cc2)c1` [(6), N-(4-(N-(2,5-dimethoxyphenyl)sulfamoyl)phenyl)-3-(p-tolyloxy)propanamide], for which the melting point stood at 145 °C. In addition, the “Relative activity (NSC23766)” value at RAC1 [1] is recorded as “>”. On RAC1 [2], this molecule returned an IC50 of 1 nM.

The molecule `COc1ccc(OC)c(NC(=O)c2ccc(NC(=O)CCSc3ccc(C)cc3)cc2)c1` [(7), N-(2,5-dimethoxyphenyl)-4-(3-(p-tolylthio)propanamido) benzamide] showed a melting point of 153 °C.

Turning to `COc1ccc(OC)c(NS(=O)(=O)c2ccc(NC(=O)CCCSc3ccc(C)cc3)cc2)c1` [(8)], the melting point worked out at 153 °C.

`COc1ccc(OC)c(NS(=O)(=O)c2ccc([N+](=O)[O-])cc2)c1` [(9), N-(2,5-dimethoxyphenyl)-4-nitrobenzenesulfonamide] returned a melting point of 165 °C.

Turning to `COc1ccc(OC)c(NS(=O)(=O)c2ccc(N)cc2)c1` [(10), 4-amino-N-(2,5-dimethoxyphenyl)benzenesulfonamide], the melting point amounted to 126 °C.

As for `CCC(=O)Nc1ccc(S(=O)(=O)Nc2cc(OC)ccc2OC)cc1` [(11), N-(4-(N-(2,5-dimethoxyphenyl)sulfamoyl)phenyl) propionamide], the melting point worked out at 170 °C.

Regarding `C=CC(=O)Nc1ccc(S(=O)(=O)N(C(=O)C=C)c2cc(OC)ccc2OC)cc1` [(16), N-acryloyl-N′-(4-(N-(2,5-dimethoxyphenyl)sulfamoyl)phenyl) acrylamide], the melting point was determined as 220.8 °C.

`COc1ccccc1NS(=O)(=O)c1ccc([N+](=O)[O-])cc1` [(17), N-(2-methoxyphenyl)-4-nitrobenzenesulfonamide] came in with a melting point of 156.5 °C. Also, at RAC1 [1], the “Relative activity (NSC23766)” value is on record as “>”. Also, on RAC1 [2], the IC50 is 1 nM.

Turning to `COc1ccccc1NS(=O)(=O)c1ccc(N)cc1` [(18), 4-amino-N-(2-methoxyphenyl)-benzenesulfonamide], the “Relative activity (NSC23766)” value on RAC1 [1] is “>”. At RAC1 [2], the half-maximal inhibitory concentration (IC50) is 1 nM.

The molecule `COc1ccccc1NS(=O)(=O)c1ccc(NC(=O)CCSc2ccc(C)cc2)cc1` [(19), N-(4-(N-(2-methoxyphenyl)sulfamoyl)phenyl)-3-(p-tolylthio) propanamide] yielded a melting point of 143.5 °C. The “Relative activity (NSC23766)” value on RAC1 [1] is listed as “>”. At RAC1 [2], this molecule displayed a 50% inhibitory concentration (IC50) of 1 nM.

`COc1ccccc1NS(=O)(=O)c1ccc(NC(=O)CSc2ccc(C)cc2)cc1` [(20), N-(4-(N-(2-methoxyphenyl)sulfamoyl)phenyl)-2-(p-tolylthio) acetamide]: the melting point was 169.3 °C. Besides, on RAC1 [1], the “Relative activity (NSC23766)” value is reported as “>”. Half-maximal inhibition at RAC1 [2] (IC50) required 1 nM.

In the case of `COc1cccc(NS(=O)(=O)c2ccc([N+](=O)[O-])cc2)c1` [(21), N-(3-methoxyphenyl)-4-nitrobenzenesulfonamide], the melting point came to 119.4 °C.

As to `COc1cccc(NS(=O)(=O)c2ccc(N)cc2)c1` [(22)], the “Relative activity (NSC23766)” value on RAC1 [1] is listed as “>”. Further, on RAC1 [2], inhibition was half-maximal at 1 nM (IC50).

The molecule `COc1cccc(NS(=O)(=O)c2ccc(NC(=O)CCSc3ccc(C)cc3)cc2)c1` [(23), N-(4-(N-(3-methoxyphenyl)sulfamoyl)phenyl)-3-(p-tolylthio) propanamide] had a melting point of 156.8 °C.

`COc1ccc(OC)c(NS(=O)(=O)c2ccc(NC(=O)CC[S+]([O-])c3ccc(C)cc3)cc2)c1` (stereo not drawn) [(24), N-(4-(N-(2,5-dimethoxyphenyl)sulfamoyl)phenyl)-3-(p-tolylsulfinyl)propanamide]: the melting point was found to be 148.1 °C.

`COc1ccc(OC)c(NS(=O)(=O)c2ccc(NC(=O)CCS(=O)(=O)c3ccc(C)cc3)cc2)c1` [(25), N-(4-(N-(2,5-dimethoxyphenyl)sulfamoyl)phenyl)-3-tosyl-propanamide] returned a melting point of 180.3 °C.

As for `COc1ccc(OC)c(N(C)S(=O)(=O)c2ccc(NC(=O)CCSc3ccc(C)cc3)cc2)c1` [(26), N-(4-(N-(2,5-dimethoxyphenyl)-N-methylsulfamoyl)phenyl)-3-(p-tolylthio)propanamide], the melting point was 48 °C.

Molecule `C#CC(=O)Nc1ccc(S(=O)(=O)Nc2cc(OC)ccc2OC)cc1` [(27), N-(4-(N-(2,5-dimethoxyphenyl)sulfamoyl)phenyl) propiolamide] had a melting point of 200 °C.

Molecule `Cc1ccc(SCCC(=O)Nc2ccc(S(=O)(=O)Nc3ccccc3F)cc2)cc1` [(30), N-(4-(N-(2-fluorophenyl)sulfamoyl)phenyl)-3-(p-tolylthio) propanamide] displayed a melting point of 162 °C.

For the molecule `COc1ccc(OC)c(NS(=O)(=O)c2ccc(NC(=O)CCl)cc2)c1` [(31), 2-chloro-N-(4-(N-(2,5-dimethoxyphenyl)sulfamoyl)phenyl) acetamide], the melting point is 190 °C.

For `COc1ccc(NS(=O)(=O)c2ccc([N+](=O)[O-])cc2)c(OC)c1` [Example 1, N-(2,4-dimethoxyphenyl)-4-nitrobenzenesulfonamide], the melting point was 161 °C.

In the case of `O=[N+]([O-])c1ccc(S(=O)(=O)Nc2ccccc2F)cc1` [Example 5], the melting point came out at 166 °C.

In the case of `COc1ccc(NS(=O)(=O)c2ccc(N)cc2)c(OC)c1` [Example 6, 4-amino-N-(2,4-dimethoxyphenyl)benzenesulfonamide], the melting point came to 115 °C.

As to `Nc1ccc(S(=O)(=O)Nc2ccccc2F)cc1` [Example 10], the melting point came out at 190 °C.
